Measured values as given in paper PMC7010350 (ACS chemical biology, 2019).

How the values were obtained:
Assay type in all cases: physicochemical
[1] = Susceptibility of the disulfide bond to reduction with DTT or β-mercaptoethanol; conditions: LC-MS
[2] = Solubility of the lyophilized peptide on resuspension in water or methanol; conditions: aqueous suspension relyophilized and resuspended in methanol
[3] = Thermostability, heat treatment at 95 °C for 2 h, LC-MS

Row | peptide reduced, 20 mM DTT with heating ([1]; 20 mM DTT, 95 °C for 2 h) | reduction of the disulfide bond, 20 mM DTT, room temperature ([1]; 20 mM DTT, room temperature 1 h, aqueous peptide 5.8 mg/mL) | peptide reduced, 5% β-ME with heating (in words) ([1]; 5% (~641 mM) β-mercaptoethanol, 95 °C for 2 h) | solubility in methanol (in words) [2] | Substance | thermally induced unthreading (in words) [3]
1 | less than 10% | no reduction products were observed | a majority of pandonodin was reduced | readily dissolved | pandonodin | only minimal unthreading
2 |  |  |  |  | pandonodin C16A C21A [pandonodin AA] | significantly more pandonodin AA unthreaded than did wild-type pandonodin
